# Data published in EP0342433A2, “Substituted dibenzothiaphenes” (AMERICAN CYANAMID COMPANY, priority 1988, dated 1989).
# Tests used:
# [1] = tested on: IL-1; test: IL-1 assay: supernatants of peritoneal exudate cells of orally treated mice, tested on thymocytes; assay type: in vivo, C57BI/6 mice; conditions: oral dose 25, 100 or 200 mg/Kg (not stated which), PEC collected four days later, 3H-TdR in thymocytes; for IL-1 ASSAY + LPS: with Lipopolysaccharide (10 μg/ml); for IL-1 ASSAY - LPS: without Lipopolysaccharide
# Description: Groups of C57BI/6 mice were treated orally with immunomodulator at doses of 25, 100 or 200 mg/Kg. Four days later peritoneal exudate cells (PEC) were collected and 1 x 10^5 cells were plated in RPMI-1640 medium containing 5% fetal calf serum (FCS). After 2 hours incubation at 37°C the non-adherent cells were washed off and the adherent cells were incubated for 24 hours in RPMI medium with 5% FCS with or without Lipopolysaccharide (10 u.g/ml). The following day the supernatants were collected and assayed for IL-1 on thymocytes. The cultures were incubated for 3 days and then pulsed with ^3H-TdR using 0.5 µCi/well. The cells were harvested and the number of counts per minute (CPM) was determined using a Beckman scintillation counter.
# [2] = tested on: IL-2; test: IL-2 assay: supernatants of Con A stimulated lymphocytes of treated mice, proliferation of indicator cells; assay type: in vivo; conditions: mice treated with 100 mg/kg, Con A for 2 days; for IL-2 ASSAY CPM, % Supernatants Tested 5: 5 % supernatant; for IL-2 ASSAY CPM, % Supernatants Tested 10: 10 % supernatant; for IL-2 ASSAY CPM, % Supernatants Tested 20: 20 % supernatant
# Description: Spleens were removed from mice and single-cell suspensions were prepared by teasing the spleens apart and rinsing through No. 40 and No. 80 stainless steel mesh screens. Erythrocytes were lysed by a 3- minute exposure to a 0.83% Tris-ammonium chloride solution. Cells were washed 3 times with HBSS and finally suspended in complete RPMI 1640 culture medium consisting of 5% FCS, 2mM L-glutamine, 5 x 10^-5M 2-mercaptoethanol, 10mM HEPES, 100 U/ml of penicillin, and 100 µg/ml of streptomycin. Cells were counted in a hemocytometer and the viability of test cells was always greater than 98% as judged by trypan blue dye exclusion.
# IL-2 was made by stimulating 10^7 B6 splenocytes with 1 µg Con A in 1 ml medium. Supernatants were harvested 2 days later and residual Con A was removed by Sephadex G-50 absorption or a-methyl mannoside inactivation. IL-2 activity was tested in the thymocyte proliferation assay described above. Additionally, test samples were added to cultures of lymphoblasts prepared by a three-day Con A stimulation or to IL-2 dependent CT11-2 cells. The proliferation of these indicator cells was measured 24 hours later by ^3HTdR incorporation.
# Lymphocytes prepared from normal mice or mice treated with 100 mg/kg of test compound were stimulated with Con A for 2 days. Culture supernatants were harvested and tested for putative IL-2 activity in 3 proliferation assays using thymocytes, lymphoblasts and CTLL-2 cells as indicators. Although supernatants from normal lymphocytes supported the growth of all indicator cells, lymphocytes from treated animals apparently produced more IL-2 as indicated by a greater degree of cell proliferation in all three test systems.
# [3] = tested on: SRBC; test: Anti-SRBC antibody assay (antibody forming cells, plaques); assay type: in vivo, mice; conditions: oral, day 0, 200 or 600 mg/kg, SRBC IP day +4; for Production of Anti-SRBC Antibody, CPM Test No. 1: control 1,260; for Production of Anti-SRBC Antibody, CPM Test No. 2: control 830
# Description: Compounds were given orally on day 0 at doses of 200 or 600 mg/kg. 0.1 ml of a 10% suspension of sheep RBC (Red Blood Cell) was given IP on day +4. Ten days later splenocytes were obtained from these mice and either 4 x 10^6 ot 2 x 10^6 splenocytes in 50 µl were mixed with 50 µl of a 15% suspension of SRBC containing guinea pig complement (1:4 dilution). 100 ul of this mixture was placed onto a slide culture and incubated for 30 to 45 minutes at 37°C. The number of antibody forming cells was determined by counting the number of visible plaques formed.
# [4] = tested on: colony stimulating factor (CSF); test: Colony stimulating factor production: mouse sera tested on normal bone marrow cells; assay type: in vivo, mice; conditions: 10% test serum on normal marrow cells, 3 days, 3HTdR; for Production of Colony Stimulating Factor, CPM Test No. 2: control 3,118; for Production of Colony Stimulating Factor, CPM Test No. 1: control 548
# Description: Mouse femurs were removed and the marrow cells collected by aspiration through a 23 gauge needle and dispensed into 5 ml of RPMI 1640 culture medium. Aliquots were diluted with a 2% solution of acetic acid containing 0.2% crystal violet and the number of nucleated cells per femur was determined by direct count in a hemocytometer.
# Mouse sera were assayed for colony stimulating factor (CSF) in cultures of normal bone marrow cells. CSF was tested in a system in which 5 x 10" normal marrow cells were incubated with 10% test samples in each well of 96-well culture plates for 3 days. Proliferation of these cells was determined by ^3HTdR incorporation.
# [5] = tested on: P815 tumor cells; test: Macrophage mediated tumor cytostasis (activation of tumoricidal macrophages in compound-treated mice); assay type: in vivo; conditions: macrophages from compound-treated mice vs normal control macrophages; 3HTdR incorporation into P815 cells; single oral dose, day 4
# Excerpt: The test compounds apparently were able to activate these cells in vivo to inhibit the growth of tumor cells in cultures. These "activated" macrophages were detectable in peritoneal exudates of treated mice on day 4 after receiving a single oral dose of the test compound. (Table I). […] (Tables II and III). […] (Table V). Mice treated with the test compounds also respond better to foreign antigens such as sheep red blood cells (SRBC) as shown by their ability to produce higher levels of antibody to this foreign protein. (Table IV). […]
# P815 tumor cells obtained from D2 mice were washed twice with HBSS and suspended in 10% FCS- complete medium. Five x 10^3 P815 cells were added to culture wells containing B6 macrophages and the E:T ratios were determined by the numbers of PE cells added initially to each well. […] The amount of ^3HTdR incorporated into target cells was determined in a liquid scintillation counter. The mean cpm were obtained from triplicate cultures with results being presented as percent cytostasis calculated by the fol lowing formula: % cytostasis = (A-B)/A x 100 where A = cpm of cultures containing normal control macrophages; and B = cpm of cultures containing experimental macrophages obtained from compound-treated mice.
SMILES,IL-1 ASSAY + LPS [1],IL-1 ASSAY - LPS [1],"IL-2 ASSAY CPM, % Supernatants Tested 5 [2]","IL-2 ASSAY CPM, % Supernatants Tested 10 [2]","IL-2 ASSAY CPM, % Supernatants Tested 20 [2]","Production of Anti-SRBC Antibody, CPM Test No. 1 [3]","Production of Colony Stimulating Factor, CPM Test No. 2 [4]",% Cytostasis [5] [%],"Production of Anti-SRBC Antibody, CPM Test No. 2 [3]","Production of Colony Stimulating Factor, CPM Test No. 1 [4]"
"CCC(=Nc1ccc2c(c1)S(=O)(=O)c1cc(N=C(CC)N(C)C)ccc1-2)N(C)C [N , N""-3,7-Dibenzothiophenediylbis[N,N-dimethylpropanimidamide] S,S-dioxide]","56,015 CPM","31,260 CPM","3,238 CPM","9,050 CPM","14,568 CPM","1,437 CPM","6,650 CPM",–,–,–
"CCC(=Nc1ccc2c(c1)S(=O)(=O)c1cc(F)ccc1-2)N(C)C [N'-(7-Fluoro-3-dibenzothienyl)N,N-dimethylpropanimidamide S,S-dioxide]",–,–,–,–,–,–,–,77.4,"1,474 CPM","1,353 CPM"
"CCC(=Nc1ccc2c(c1)-c1cc(N=C(CC)N(C)C)ccc1S2(=O)=O)N(C)C [N,N'""-2,8-Dibenzothiophenediyibis[N,N-dimethyipropanimidamide] S,S-dioxide]","44,983 CPM","52,160 CPM","2,766 CPM","6,457 CPM","11,288 CPM","1,029 CPM","6,513 CPM",–,–,–
"CC(=O)Nc1ccc2c(c1)S(=O)(=O)c1cc(F)ccc1-2 [N-(7-Fluoro-3-dibenzothienyl)acetamide S,S-dioxide]","36,320 CPM","50,677 CPM","2,849 CPM","5,653 CPM","10,982 CPM",–,–,13.9,"1,469 CPM",976 CPM
